{
  "source": "patent US5371102A",
  "about": "“Compositions and methods of inhibiting thyroid activity” (priority 1993, dated 1994)",
  "key": {"TPX": {"target": "T1, TPX (Sus scrofa, UniProt P09933)", "T1 sequence (P09933 15-926)": "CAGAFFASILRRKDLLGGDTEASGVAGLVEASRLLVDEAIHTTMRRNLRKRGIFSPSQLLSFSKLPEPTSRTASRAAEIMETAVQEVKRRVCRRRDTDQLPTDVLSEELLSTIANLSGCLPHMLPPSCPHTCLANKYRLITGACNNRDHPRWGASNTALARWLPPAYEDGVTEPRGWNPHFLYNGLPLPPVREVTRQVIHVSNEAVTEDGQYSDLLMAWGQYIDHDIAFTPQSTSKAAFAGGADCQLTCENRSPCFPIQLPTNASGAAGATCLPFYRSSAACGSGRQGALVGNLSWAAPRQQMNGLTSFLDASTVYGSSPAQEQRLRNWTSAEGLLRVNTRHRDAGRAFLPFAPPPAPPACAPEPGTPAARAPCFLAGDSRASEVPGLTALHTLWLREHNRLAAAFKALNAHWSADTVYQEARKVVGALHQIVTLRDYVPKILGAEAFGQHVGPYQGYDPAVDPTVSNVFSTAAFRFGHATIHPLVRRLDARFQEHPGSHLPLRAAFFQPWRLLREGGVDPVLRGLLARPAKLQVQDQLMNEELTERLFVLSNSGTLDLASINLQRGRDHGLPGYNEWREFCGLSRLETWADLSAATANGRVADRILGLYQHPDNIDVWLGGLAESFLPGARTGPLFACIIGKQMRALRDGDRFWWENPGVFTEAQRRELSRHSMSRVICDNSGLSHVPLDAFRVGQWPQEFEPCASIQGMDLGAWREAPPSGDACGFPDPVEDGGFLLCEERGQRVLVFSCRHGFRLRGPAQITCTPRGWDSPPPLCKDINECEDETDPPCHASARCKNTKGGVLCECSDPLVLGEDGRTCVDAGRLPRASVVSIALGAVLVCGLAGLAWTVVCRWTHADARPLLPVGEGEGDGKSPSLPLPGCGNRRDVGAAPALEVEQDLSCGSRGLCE", "assay": "TPX/hydrogen peroxide-catalyzed oxidation of ABTS and guaiacol", "type": "biochemical, hog", "source_text": "(§1) Materials used in the examples below were obtained from the following sources. Bovine LPX, bovine liver catalase, glucose oxidase, 30% hydrogen peroxide, glucose, guaiacol, ABTS and deuterium oxide were purchased from Sigma Chemical Company. Selenium dioxide, MBI ^13 CH3 I and PBA were purchased from Aldrich Chemical Company and PBA was purified as previously described by Fieset et al., Reagents for Organic Synthesis, Vol. I, pp.135-139, John Wiley and Sons, N.Y. (1967). LPX purity was checked by PAGE, as described by Doerge, D.R., et al. in, Biochem. Pharmacol., Vol.36, pp.972-974 (1986). TPX was purified from hog thyroids obtained from a local slaughterhouse by published procedures. Doerge & Takazowa, Chemical Research in Toxicology, Vol. 3, pp. 98-101 (1990). TPX purity was determined by LC and its concentration determined spectophotometrically. Hydroperoxide concentrations were determined by iodometric titration, as described by Kolthoff, et al., in \"Quantitative Chemical Analysis\", Macmillan, London, pp.842-860 (1969). MMBI, and BI were synthesized by published procedures as described by Doerge, D.R., Biochem, Vol. 27, pp. 3697-3700 (1988) and were recrystallized from aqueous ethanol. […] PPHP and PPA were prepared, purified and analyzed as previously described by Doerge, Biochem, Vol.27, p.11 (1988). […]"}, "LPX [1]": {"target": "T2, LPX (Bos taurus, UniProt P80025)", "T2 construct": "purchased Sigma Chemical Company", "assay": "LPX suicide inactivation kinetics", "type": "biochemical, bovine", "conditions": "presence of hydrogen peroxide", "source_text": "(§2) Materials used in the examples below were obtained from the following sources. Bovine LPX, bovine liver catalase, glucose oxidase, 30% hydrogen peroxide, glucose, guaiacol, ABTS and deuterium oxide were purchased from Sigma Chemical Company. Selenium dioxide, MBI ^13 CH3 I and PBA were purchased from Aldrich Chemical Company and PBA was purified as previously described by Fieset et al., Reagents for Organic Synthesis, Vol. I, pp.135-139, John Wiley and Sons, N.Y. (1967). LPX purity was checked by PAGE, as described by Doerge, D.R., et al. in, Biochem. Pharmacol., Vol.36, pp.972-974 (1986). TPX was purified from hog thyroids obtained from a local slaughterhouse by published procedures. Doerge & Takazowa, Chemical Research in Toxicology, Vol. 3, pp. 98-101 (1990). TPX purity was determined by LC and its concentration determined spectophotometrically. Hydroperoxide concentrations were determined by iodometric titration, as described by Kolthoff, et al., in \"Quantitative Chemical Analysis\", Macmillan, London, pp.842-860 (1969). MMBI, and BI were synthesized by published procedures as described by Doerge, D.R., Biochem, Vol. 27, pp. 3697-3700 (1988) and were recrystallized from aqueous ethanol. MeBI was purified by distillation and DMeBI^+ was synthesized and purified by recrystallization from ethyl acetate/methanol. 1-^13 C-MMBI was synthesized from ^13 CH3 I according to the procedure disclosed by Doerge, D.R., in, J. Lab. Comp. and Radiopharm., Vol.25, pp.985-990 (1988). PPHP and PPA were prepared, purified and analyzed as previously described by Doerge, Biochem, Vol.27, p.11 (1988). The methyl ester of 1-methyl-benzimidazole-2-sulfinic acid was prepared by addition of hydrogen peroxide (5 equivalents of a 10 M solution) to MMBI (0.1 M) in methanol. The products, MeBI and the ester, were obtained following preparative TLC on silica (Uniplate, Analtech Co., Newark, DL) using 5% methanol/chloroform as eluant.\nInhibition of LPX activity by thiones was determined from the kinetics of iodide ion, guaiacol or ABTS oxidation assays conducted at 25° C. Kinetic parameters of suicide inactivation were determined as previously described. Doerge, Biochem. Vol.27, pp.3697-3700 (1988)."}, "LPX [2]": {"target": "T2, LPX", "assay": "LPX-catalyzed oxidation of guaiacol or ABTS", "type": "biochemical, bovine", "conditions": "LPX plus hydrogen peroxide", "source_text": "as §1, with “(1969).” for “(1969). MMBI, and BI were synthesized by published procedures as described by Doerge, D.R., Biochem, Vol. 27, pp. 3697-3700 (1988) and were recrystallized from aqueous ethanol.”\nInhibition of LPX activity by thiones was determined from the kinetics of iodide ion, guaiacol or ABTS oxidation assays conducted at 25° C. Kinetic parameters of suicide inactivation were determined as previously described. […]"}, "LPX [3]": {"target": "T2, LPX", "assay": "LPX-mediated oxidative turnover of DMMBI and hydroperoxide", "type": "biochemical, bovine", "source_text": "as §2\nThe distinct methyl and aromatic proton resonances of DMMBI and DMeBI^+ in the ^1 H-NMR spectrum provide a sensitive method to detect enzymatic transformation of DMMBI. DMMBI (100 μM) was incubated with LPX (50 μM), iodide ion (5 mM) and hydrogen peroxide (300 μM) in 10 mls of 0.01 M phosphate buffer solution, pH 7.0. The solution was incubated at 25° C. for 1 min followed by addition of catalase. The sample was then lyophilized and analyzed by ^1 H-NMR. The solids were dissolved in 1 ml D2 O and lyophilized again. Proton-deuterium exchange was repeated twice more and the solids were dissolved in 0.5 ml D2 O containing DSS. The HOD peak was suppressed in a one pulse presaturation experiment where the HOD peak was irradiated for 2 sec prior to acquisition of sample resonances. The ^1 H-NMR spectra of DMeBI^+ and DMMBI were similarly recorded in D2 O.\nPPHP is a chromophoric hydroperoxide interchangeable with hydrogen peroxide in many peroxidase-catalyzed reactions. LPX-catalyzed turnover of PPHP gives PPA, the corresponding alcohol, which can be quantitated by HPLC. The use of PPHP permits a direct correlation of LPX-catalyzed substrate consumption and product formation with actual hydroperoxide turnover."}, "[4]": {"conditions": "PPHP-supported LPX-catalyzed iodination"}},
  "note": "Entries after “also recorded” stand apart in the source; their conditions may differ.",
  "data": [
    {"smiles": "Cn1c(=S)n(C)c2ccccc21", "note": "[DMMBI, 1,3-dimethylbenzimidazole-2-thione]", "values": [
      {"measurement": "effect on oxidation of ABTS and guaiacol", "setting": "TPX", "result": "does not affect LPX or TPX/hydrogen peroxide-catalyzed oxidation of the substrates ABTS and guaiacol"},
      {"measurement": "LPX inactivation / loss of LPX activity", "setting": "LPX [1]", "result": "does not inactivate LPX or TPX"},
      {"measurement": "effect on rate of enzymatic oxidation of guaiacol or ABTS", "setting": "LPX [2]", "result": "did not reduce the rate of enzymatic oxidation; also recorded: does not affect LPX or TPX/hydrogen peroxide-catalyzed oxidation of the substrates ABTS and guaiacol"},
      {"measurement": "conversion of DMMBI to DMeBI+", "setting": "LPX [3]; LPX, 3 equivalents H2O2 and iodide ion", "result": "quantitative conversion of DMMBI to DMeBI^+"},
      {"measurement": "turnover events without LPX inactivation", "setting": "LPX [3]; LPX, hydrogen peroxide and iodide ion", "result": "> 300", "unit": "turnover events"},
      {"measurement": "moles of PPA formed per mole of DMMBI consumed", "setting": "LPX [3]; [4]", "result": "3.2 ± 0.2", "unit": "mol"},
      {"measurement": "moles of PPHP consumed per mole of DMMBI consumed", "setting": "LPX [3]; [4]", "result": 3.2, "unit": "mol"},
      {"measurement": "conversion of DMMBI to DMeBI+", "setting": "LPX [3]; controls: no iodide ion, no LPX or no hydrogen peroxide", "result": "no conversion of DMMBI to DMeBI^+ was observed"}
    ]}
  ]
}
